# Data: a melting point compilation (Tetko et al.; mined from patent text by program, amines drawn as free bases though some values may be those of a salt)
row,melting point,Compound
1,279 to 281 °C,CN(Cc1cccc2c1C(=O)N(C1CCC(=O)NC1=O)C2=O)C(=O)Nc1ccc(Cl)cc1 (configuration not stated)
2,57 to 58 °C,OCCCNCc1cc(C(F)(F)F)cc(C(F)(F)F)c1
3,274 to 276 °C,CCc1nc2c([nH]1)c(=O)n(C)c(=O)n2-c1ccc(Cl)cc1Cl
4,163 to 164 °C,COC1(c2ccccc2)N=CC(=O)N(C)c2ccc([N+](=O)[O-])cc21 (configuration not stated)
5,123 to 125 °C,CCN(CC)c1ccc(C2OC(=O)c3cc(N(C)C)ccc32)c(C)c1 (configuration not stated)
6,110 to 112 °C,CNc1nc(-c2cccc(C=O)c2)c2cc(OC)c(OC)cc2n1
7,222 to 224 °C,N#Cc1ccc(N(Cc2ccc(Br)cc2)n2cnnc2)cc1-c1ccc(O)cc1
8,195 to 197 °C,NC(C=Cc1cccc(Cl)c1)=NO
9,285 to 288 °C,O=c1cc(-c2ccccc2)c2c([nH]1)CCCC2
10,118 to 120 °C,Cc1sc(I)c(C)c1CO
11,29 to 30 °C,CCCCCc1ccc(CCCCCC(=O)O)cc1
12,115 to 116 °C,OCC1=CCc2cc3ccccc3cc21
13,91 to 93 °C,NCCNCC(O)COc1ccccc1C(N)=O (configuration not stated)
14,112 to 113 °C,Cc1c(CO)oc2ccc(Cl)cc12
15,164 °C,Nc1nc(S(=O)(=O)Cl)nn1C(=O)Oc1ccccc1
16,138 to 139 °C,C#CC(O)c1cccc2ccncc12 (configuration not stated)
17,128 to 130 °C,COCn1ccc(C(=O)c2ccc(Cc3ccc(F)cc3)o2)c(O)c1=O
18,248 to 250 °C,COc1ccc2nc(Nc3ccc(F)cc3C)nc(N(C)c3ccccc3)c2c1
19,90 to 93 °C,C=C(C)C(=O)N1CCC(C(=O)O)CC1
20,129 to 131 °C,OCc1ccc(I)cc1O
21,109 to 111 °C,CC(=O)c1cc(C[C@H](NC(=O)c2c(Cl)cccc2Cl)C(=O)O)ccc1-c1ccccc1
22,81 to 82 °C,CCCCCCCCCCCCCCCCCCOC(=O)P(=O)(O)O
23,89 to 91 °C,CCCc1c(COc2ccc(Cc3nnn(CCCS(C)(=O)=O)n3)cc2)ccc(C(C)=O)c1O
24,224 to 225 °C,Cc1ccnc(C(=O)c2[nH]c3cc(Cl)ccc3c2NC(=O)CCl)c1
25,133 to 134 °C,CCCCCS(=O)(=O)NC(=O)/C=C/c1ccc(OCCOC)cc1Oc1ncc(-c2ccccc2)cc1C

row,melting point,Compound
1,163 to 165 °C,CCCCCCCCCCOc1ccc(C(=NO)c2cccc(C(=O)O)c2)cc1CCC(=O)O
2,46 to 48 °C,Cc1ccc(Oc2ccc(C=O)cc2)c(O)c1
3,101 to 103 °C,Oc1ccc(CC(=S)Nc2ncc(-c3ccc(O)cc3)nc2Cc2ccccc2)cc1
4,225 to 236 °C,CNC(=O)CN1CCc2cc(Nc3ncc(Cl)c(Nc4cc(C(N)=O)ccc4OC)n3)c(OC)cc2CC1
5,245 to 247 °C,CCOC(=O)NC(=O)C(C#N)=CNc1c(Cl)cc(Cl)cc1Cl
6,206 to 208 °C,O=c1[nH]c2ccc(Cl)cc2n1C1CCCCC1
7,221 to 222 °C,COc1ccc(C(=O)Nc2ccc(F)c(F)c2)cc1NC(=S)Nc1cccc(C(=O)O)c1
8,265 °C,Cc1c(C(=O)Nc2ccc(N3CCN(c4ccc(Cl)cc4)CC3)c(C#N)c2)cnn1-c1ccc(Cl)cc1
9,232 to 235 °C,COc1ccccc1N1CCN(NC(=O)c2ccc(Cl)c(S(N)(=O)=O)c2)CC1
10,196 to 197 °C,CC(=O)N1CCN(c2ccc(C3CCS(=O)(=O)NC3)cc2)CC1 (configuration not stated)
11,101 to 104 °C,C(=C/c1cn(C(c2ccccc2)(c2ccccc2)c2ccccc2)cn1)/CCOCc1ccccc1
12,117 to 122 °C,c1cc(Oc2ccc3c(c2)CCCN3)ccn1
13,216 to 220 °C,CSc1nc(-c2ccc(O)cc2)n(C)n1
14,139 to 140 °C,CCc1ccc(OC(CC)C(=O)OC2CC(O)C=C3C=CC(C)C(CCC4CC(O)CC(=O)O4)C32)cc1 (mixture of isomers)
15,107 to 109 °C,Cc1oc2c(C)c(C)c(NCc3ccc(F)cc3)c(C)c2c1-c1ccc(F)cc1
16,184 to 187 °C,N=C(N)CSc1nnc(S)s1
17,98 to 100 °C,CC(=O)Nc1cccc(-c2csc3nc(C45CC6CC(CC(C6)C4)C5)cn23)c1
18,190 °C,CCN(CC)C(=O)Nc1ccc(Cn2c(=O)n(C3CCCCC3)c3cc(Cl)ccc32)c(OC)c1
19,199 to 201 °C,CC(C)(C)OC(=O)NCCCC(=O)NCc1cccc2c1CN(C1CCC(=O)NC1=O)C2=O (configuration not stated)
20,112 to 113 °C,COC(=O)c1nn(C)nc1CO
21,156 to 158 °C,CC(=O)OCc1ccc2oc(=O)c(C(=O)Oc3ccccc3I)cc2c1
22,105 to 107 °C,N#Cc1ccccc1OCCCN1CCC(NC(=O)Cc2ccccc2)CC1
23,229 to 231 °C,COC(=O)COc1ccc2c(c1)sc1cc3ccccc3c(-c3ccc(O)cc3)c12
24,96 to 112 °C,CC(=O)Nc1ncc(S(=O)(=O)NCC(O)(Cn2cncn2)c2ccc(Cl)cc2Cl)s1 (configuration not stated)
25,46 to 48 °C,C=CCNC(=S)n1nc(Oc2ncc(C(F)(F)F)cc2Cl)cc1C

row,melting point,Compound
1,107 to 108 °C,ClCc1coc(-c2ccc(Cl)o2)n1
2,101 to 102 °C,CC(C)c1nc(CCCl)n(C)c1Sc1cc(Cl)cc(Cl)c1
3,225 °C,NS(=O)(=O)c1cccc(-c2cn(-c3nc(-c4ccc(Cl)cc4)cc(C(F)(F)F)n3)cn2)c1
4,163 to 165 °C,Oc1ccc(Nc2nc(NCc3ccco3)nc(N3CCOCC3)n2)cc1
5,143 °C,COc1ccc(CS[C@@H]2C[C@@H](CN=[N+]=[N-])N(S(=O)(=O)c3ccc4ccccc4c3)C2)cc1
6,97 to 99.4 °C,COCCc1ccc(-c2ccc(I)cc2)cc1
7,98 to 101 °C,CCCCOc1cc(CNCCCN2CCCCC2)cc(S(N)(=O)=O)c1Cc1ccccc1
8,257 °C,CCCCc1nc(SC2CCCCC2)c(C(=O)O)n1Cc1cc2c(cc1Cl)OCO2
9,66 to 67 °C,COc1cnccc1C#N
10,177 to 179 °C,Cc1ccccc1CNc1cccc(-c2ccnc3c(C(=O)c4cccs4)cnn23)c1
11,173 to 174 °C,COC(=O)C1=C(O)c2cc(Cl)sc2S(=O)(=O)N1
12,178 to 180 °C,COc1cc2c(c(OC)c1OC)C(=O)O[C@H]2CO
13,141 to 142 °C,Nc1cc(C(O)=S)cc(Cc2ccccc2)c1C(=O)c1ccccc1
14,242 to 245 °C,Cc1nc(C)n(-c2cc(C)c3[nH]c(=O)ccc3c2)c1I
15,248 to 250 °C,COc1ccc(-c2nc(C(C)=O)c[nH]2)cc1
16,154 to 157 °C,CCOC1CN(Cc2ccc(OC)cc2)Cc2cc(OC)c(O)cc21 (configuration not stated)
17,178 to 181 °C,CC(=O)OCN1C(=O)CN(CCN2CC(=O)N(COC(C)=O)C(=O)C2)CC1=O
18,70 °C,OCc1cccc(OCc2ccc3ccccc3n2)c1
19,253 to 255 °C,O=C(Nc1ccc(-n2nc(C(F)(F)F)cc2C(F)(F)F)cc1)c1cc2cc(F)ccc2[nH]1
20,252 °C,CCOc1ccccc1NC=C1C(=O)N(c2ccc(S(=O)(=O)N3CCCCC3)cc2)N=C1C
21,144 to 146 °C,OC(CCc1ccccc1)c1c[nH]cn1 (configuration not stated)
22,228 to 229 °C,O=C1C(O)=C(O)C(=O)c2cc(Cl)ccc21
23,90 to 95 °C,COC(=O)CCCCCCCNC(=O)C(COS(C)(=O)=O)NS(=O)(=O)c1ccc(Cl)cc1 (racemic)
24,246 °C,Cc1ccncc1-n1nc(C)c(CC(=O)O)c1-c1ccccc1
25,238 °C,CN(C)NC(=O)Nc1cccc2c1C(=O)c1c-2n[nH]c1-c1ccc(N2CCNCC2)cc1

row,melting point,Compound
1,120 to 121 °C,COC(CCN(C(=O)OC(C)(C)C)c1cc(OCc2ccccc2)c2ncccc2c1I)OC
2,225 to 226 °C,CCNC(=O)c1cc2c(Cl)ccc(-n3c(=O)cc(C(F)(F)F)n(C)c3=O)c2o1
3,108 to 111 °C,CCOC(=O)CN(CC(=O)OCC)C(=O)C(CCC(=O)O)CS(=O)(=O)c1ccc2ccccc2c1 (configuration not stated)
4,56 to 58 °C,CC1(C)OCC(CBr)(CBr)CO1
5,167 °C,CC(CN(C)C)N1c2ccccc2Sc2ccc(C(=S)NCC3CCCCC3)cc21 (racemic)
6,178 to 180 °C,Nc1ncc(-c2cccc(Nc3ccc(-c4ccco4)cc3[N+](=O)[O-])c2)cn1
7,171 to 172 °C,CC(O)c1c(Cl)nc2n(c1=O)CCS2 (configuration not stated)
8,295 to 297 °C,Clc1ccc2c(c1)c(-c1ccccc1)nc1nncn12
9,49 to 59 °C,C(#Cc1cccs1)c1ccccc1
10,171 to 172 °C,CC1(C)OC(=S)Nc2ccc(-c3ccccc3Cl)cc21
11,83 to 85 °C,Cc1c(SCCCCl)ccnc1CSc1ncccn1
12,202 to 208 °C,O=C1Cc2cc(Cl)ccc2N1O
13,86 to 87 °C,O=C(O)[C@@H](CSCc1ccccc1)N1C(=O)C=CC1=O
14,167 to 169 °C,CCC(=O)Nc1c(-n2cncn2)cnn1-c1c(Cl)cc(C(F)(F)F)cc1Cl
15,133 to 134 °C,OC1CCCCC1c1ncc[nH]1 (configuration not stated)
16,152 to 155 °C,COCCn1cc(C(=O)N2CCC(c3cc(CNC(=O)C(F)(F)F)ccc3F)CC2)c2c(-c3ccncc3)cccc21
17,223 to 224 °C,COC(=O)c1ccc2c(c1)C(C(=O)O)c1ccccc1CO2 (configuration not stated)
18,286 °C,CCC(=O)Nc1ccc(CN2C(=O)[C@H]3CCC[C@H]3N(C(=O)CN3C(=O)c4ccccc4C3=O)c3ccccc32)cc1 (relative stereo)
19,72.9 to 74 °C,CC(=O)N1CCC(C(=O)N(CCCN2CC3CN(C(=O)c4cccnc4N4CCC4)CC3C2)c2ccc(C)c(Cl)c2)CC1 (configuration not stated)
20,105 to 106 °C,O=C1CCC(c2ccc(OC(F)(F)F)cc2)N1 (configuration not stated)
21,235 to 255 °C,COc1ccc(-c2ccc(C(N)=O)cc2)cc1-c1ccc2nonc2c1
22,169 to 171 °C,CC(=O)NC[C@H]1CN(c2cc(F)c(C3CCN(C(=O)COCc4ccccc4)CC3)c(F)c2)C(=O)O1
23,249 to 252 °C,CCCCNc1c(C(=O)OCC)c(C)nc2[nH]c(O)nc12
24,204 to 208 °C,CCC(O)c1cnc2c(C)c(NC(=O)c3ccc(-c4ccc(F)cc4)cc3)ccc2c1 (configuration not stated)

row,Compound,melting point
1,Cc1cccc2c(CCN3CCCCC3)c(-c3ccccc3)[nH]c12,159 to 161 °C
2,CC(C)CCCOC1CCC2C3C(=O)C=C4CC(O)CCC4(C)C3CCC12C (configuration not stated),134 °C
3,CCCn1c(CC)c2c3c(cccc31)C1CC(NC(=S)N(CC)CC)CN(C)C1C2 (configuration not stated),173 to 175 °C
